Measurements from patent US9464093B2, “Substituted imidazo[4',5':4,5]cyclopenta[1,2-e]pyrrolo[1,2-a]pyrazines and oxazolo[4',5':4,5]cyclopenta[1,2-e]pyrrolo[1,2-a]pyrazines for treating brain cancer” (Mayo Foundation for Medical Education and Research, priority 2012, dated 2016).
Entries after “also recorded” stand apart in the source; their conditions may differ. Like-named read-outs stand apart in the source and are kept apart here.

Experiments:
MB-468 = experiment: Cell proliferation assay MB-468 (Example 6); type: cell-based; settings: cells counted on the sixth day
Method: (§1) In-vitro assays were performed to assess the cytotoxic impact of AA analogues on breast cancer cell lines (MB-468, MB-453, and T47D), lymphoma cell lines (Raji and OCI-LY10), and glioblastoma multiforme cell line (U87). The three breast cancer cell lines represent three subtypes of breast cancer: triple-negative (MB-468), Her2-positive (MB-453), and hormone receptor positive (T47D).
(§2) The IC50 values obtained for each compound represents the concentration of the tested compound that is needed to decrease the cancer cell count by 50%. Cancer cells were seeded in triplicate at 50,000 cells per well of a 24-well plate in 0.5 ml medium. […] Cells were harvested and counted on the sixth day using a Beckman Coulter counter.

MB-453 = experiment: Cell proliferation assay MB-453 (Example 6); type: cell-based; settings: cells counted on the sixth day
Method: as §1, §2

T47D = experiment: Cell proliferation assay T47D (Example 6); type: cell-based; settings: cells counted on the sixth day
Method: as §1, §2

U87 = experiment: Cell proliferation assay U87 (Example 6); type: cell-based; settings: cells counted on the sixth day
Method: as §1, §2

OCI-LY10 = experiment: Cell proliferation assay OCI-LY10 (Example 6); type: cell-based; settings: cells counted on the sixth day
Method: as §1, §2

[1] = system: OCI-LY10 B lymphoma cells; experiment: OCI-LY10 orthotopic murine CNS lymphoma model; type: in vivo; settings: for Median Survival (Day) CNS Lymphoma (OCI-LY10): control 35; for survival (Kaplan-Meier) vs control, OCI-LY10 model / tumor growth (BLI) vs control, OCI-LY10 model: all treatment groups (2.5 or 5 mg/kg i.p. daily for 4 days); for tolerability, OCI-LY10 model: both dose levels (2.5 and 5 mg/kg)
Method: (§3) Female athymic mice (8-10 weeks old and weighing 20-25 g at the beginning of the study) were purchased from Harlan laboratories (Indianapolis, Ind.). They were housed in a temperature-controlled sterilized room (23±2° C.) with a 12-h light/dark cycle and free access to food and water throughout the study.
(§4) Murine brain tumor models were created by intracerebral injection of luciferase-transfected cancer cells in athymic mice under anesthesia using a stereotactic platform. For murine model for CNS lymphoma, 1×10^5 OCI-LY10 B lymphoma cells were used. For murine model for metastatic breast cancer of the brain (MBCB), 1×10^5 MB-468 triple-negative breast cancer cells were used. For murine model for glioblastoma multiforme (GBM), 1.75×10^5 U87 cells were used. Eight-week-old athymic mice underwent a minimum 7-day acclimation/quarantine prior to surgery. Surgery was performed in a laminar flow hood under sterile conditions. Tylenol 300 mg/kg PO was given for analgesia 48 hours before the surgery and continuing 48 hours postoperatively. Anesthesia was achieved by inhalation of 1-2% isoflurane. After the mouse became well anesthetized, it was placed in the Kopf stereotactic instrument. A small amount of BNP antibiotic cream (a mixture of Bacitracin, Neomycin and Polymyxin) was smeared on its eyes to prevent infection and corneal damage during surgery. A strip of soft fabric was placed over the mouse's body and tail to prevent excessive heat loss during surgery. The scalp area was cleaned with a 2% solution of Betadine and dried with cotton tipped applicator. A midline sagittal incision was made in the scalp. A small burr hole was drilled in the left skull with a surgical drill (Kopf) or a Dremel drill according to the coordinates (AP: 0.5 mm, LM: 2.5 mm) as determined by reference to the mouse brain atlas by Franklin and Paxinos. The dura mater was surgically exposed, and a 10 μl Hamilton syringe with a 26S-gauge beveled needle was lowered into the left cerebral hemisphere up to a depth of 3 mm and 5 μl of tumor cells were slowly infused (0.5 μl/min). The needle was left in place for 5 minutes to prevent reflux and then was slowly removed. The skin was closed with wound clips. The mice recovered from anesthesia and surgery in a warm environment and were not returned to their cages until motor activity returned. Cages were placed on top of a heating pad to minimize the loss of body heat during the recovery. The mice were monitored post-operatively at least twice a day for 5 days or until recovery was complete.
(§5) BLI was used to assess the impact of the treatments on the brain tumor growth. After intracerebral injection of cancer cells, all the mice were subjected to bioluminesence imaging (BLI) twice a week starting at day-4 post-intracerebral injection to monitor the real-time in vivo tumor growth. BLI was conducted using a Xenogen Lumina optical imaging system (Caliper Life Sciences, Hopkinton, Mass.). Mice were anesthetized with isofluorane before intraperitoneal injections of luciferin at a dose of 150 mg/kg, providing a saturating substrate concentration for luciferase enzyme. Peak luminescent signals were recorded 10 minutes after luciferin injection. Regions of interest encompassing the intracranial area of signal were defined using Living Image software (Xenogen, Alameda, Calif.), and the total photons/s/steradian/cm2 was recorded.
(§6) Five mice each were assigned to one of seven treatment groups or one vehicle control group for all three brain tumor models. Mice in experimental groups received either 2.5 mg/kg or 5 mg/kg of AA, CEAA, or DCEAA by intraperitoneal route daily for 4 days. For CAA, only 2.5 mg/Kg by intraperitoneal route daily for 4 days was used. The control group received DMSO by intraperitoneal route for 4 days. The end point for the survival analysis was the development of limb paralysis. Animals were checked at least twice per day. Animals that reached the end point were sacrificed by CO2 anesthesia. […]

[2] = system: MB-468 triple-negative breast cancer cells; experiment: MB-468 orthotopic murine model for metastatic breast cancer of the brain; type: in vivo, athymic mice; settings: for Median Survival (Day) Breast Cancer (MB-468): control 52; for survival (Kaplan-Meier) vs control, MB-468 model / tumor growth (BLI) vs control, MB-468 model: all treatment groups (2.5 or 5 mg/kg i.p. daily for 4 days); for tolerability, MB-468 model: both dose levels (2.5 and 5 mg/kg)
Method: as §3, §4, §5, §6

U87 cells = experiment: U87 orthotopic murine model for glioblastoma multiforme; type: in vivo; settings: for Median Survival (Day) GBM (U-87): control 25.5; for survival (Kaplan-Meier) vs control, U87 model / tumor growth (BLI) vs control, U87 model: all treatment groups (2.5 or 5 mg/kg i.p. daily for 4 days); for tolerability, U87 model: both dose levels (2.5 and 5 mg/kg)
Method: as §3, §4, §5, §6

[3] = system: Raji B cells (Burkitt's lymphoma cells); experiment: Cytotoxicity, cell count, Raji (Example 4); settings: read-out: Cytotoxicity (IC50, μM) Raji
Method: (§7) Raji cells and MB-468 cells were purchased from American Tissue Culture (Manassas, Va.). […] Cells were harvested and counted on the third day in a Coulter Particle Counter (Beckman-Coulter Corp.: Brea, Calif.). IC50 values were calculated using GraphPad Prism 5 (GraphPad Software Inc., La Jolla, Calif.).

[4] = system: MB-468 (triple-negative breast cancer cells); experiment: Cytotoxicity, cell count, MB-468 (Example 4); settings: read-out: Cytotoxicity (IC50, μM) MB-468
Method: as §7

Raji lymphoma cells = experiment: Intracerebral dissemination of lymphoma cells (CD20 IHC); type: in vivo, athymic mice
Text: Paraffin sections (10 μm thick) were fixed and mounted onto glass slides, blocked, and immunostained with antibody to CD20 to identify B lymphoma cells.
Murine brains harvested from the in-vivo experiments to assess the pre-clinical therapeutic activity of AA were studied by IHC. CD20-positive lymphoma cells were counted in the cerebral hemisphere contralateral to the tumor implantation side for dissemination in lateral, anterior, and posterior directions by ScanScope XT slide scanner and image analysis system (Aperio Spectrum, Vista, Calif.). One-way ANOVA was used to determine the statistical significance of the difference between the treated group and untreated control group.

[5] = 2.5 mg/kg intraperitoneal daily for 4 days
[6] = 5 mg/kg intraperitoneal daily for 4 days

Row | Compound | IC50 (MB-468) | IC50 (MB-453) | IC50 (T47D; Homo sapiens, T47D) | IC50 (U87; Homo sapiens, U-87 MG) | IC50 (OCI-LY10; Homo sapiens, OCI-Ly10) | Median Survival (Day) CNS Lymphoma (OCI-LY10) [1, 5] | survival (Kaplan-Meier) vs control, OCI-LY10 model [1] | tumor growth (BLI) vs control, OCI-LY10 model [1] | Median Survival (Day) Breast Cancer (MB-468) [2, 5] | survival (Kaplan-Meier) vs control, MB-468 model [2] | tumor growth (BLI) vs control, MB-468 model [2] | Median Survival (Day) GBM (U-87) (U87 cells; [5]) | survival (Kaplan-Meier) vs control, U87 model (U87 cells) | tumor growth (BLI) vs control, U87 model (U87 cells) | IC50 ([3]; Homo sapiens, Raji) | IC50 [4] | Median Survival (Day) CNS Lymphoma (OCI-LY10) [1, 6] | tolerability, OCI-LY10 model [1] | Median Survival (Day) Breast Cancer (MB-468) [2, 6] | Median Survival (Day) GBM (U-87) (U87 cells; [6]) | other results
1 | CN1C(=O)N[C@H]2[C@@H]3NC(=O)c4ccc(Cl)n4[C@@H]3C[C@]21O [CAA, chloroagelastatin A] | 81.1 nM | 91.9 nM | 29.8 nM | 96.6 nM | 102 nM | 49 days | significantly prolonged survival; also recorded: prolongation of survival | significantly decreased tumor growth; also recorded: significantly slower | 75 days | significantly prolonged survival | significantly decreased tumor growth | 31 days | significantly prolonged survival; also recorded: prolongation of survival | significantly decreased tumor growth; also recorded: significantly slower | 0.18 µM | 0.08 µM |  |  |  |  | weight loss, OCI-LY10 model ([1]; 2.5 mg/kg): Some weight loss; weight loss, MB-468 model ([2]; 2.5 mg/kg): Some weight loss; weight loss, U87 model (U87 cells; 2.5 mg/kg): Some weight loss
2 | CCN1C(=O)N[C@H]2[C@@H]3NC(=O)c4ccc(Cl)n4[C@@H]3C[C@]21O [CEAA, chloroethylagelastatin A] | 277 nM | 141 nM | 20.7 nM | 109 nM | 119 nM | 57 days | significantly prolonged survival; also recorded: prolongation of survival | significantly decreased tumor growth; also recorded: significantly slower | 56 days | significantly prolonged survival; also recorded: prolongation of survival | significantly decreased tumor growth; also recorded: significantly slower | 29 days | significantly prolonged survival; also recorded: prolongation of survival | significantly decreased tumor growth; also recorded: significantly slower | 0.3 µM | 0.28 µM | 65 days | well tolerated | 64 days | 31 days | tolerability, MB-468 model [2]: well tolerated; tolerability, U87 model (U87 cells): well tolerated
3 | CN1C(=O)N[C@H]2[C@@H]3NC(=O)c4ccc(Br)n4[C@@H]3C[C@]21O [AA, agelastatin A, reference compound] | 2800 nM | 644 nM |  |  |  | 48.5 days | significantly prolonged survival; also recorded: prolongation of survival | significantly decreased tumor growth; also recorded: significantly slower | 57 days | significantly prolonged survival; also recorded: prolongation of survival | significantly decreased tumor growth; also recorded: significantly slower | 28 days | significantly prolonged survival; also recorded: prolongation of survival | significantly decreased tumor growth; also recorded: significantly slower |  |  | 46 days |  | 60.5 days | 30 days | lateral dissemination of lymphoma cells (Raji lymphoma cells; T2 (2.5 mg/kg i.p.) and T3 (5 mg/kg i.p.) groups): decreased lateral dissemination of lymphoma cells; lymphoma cell dissemination in the anterior and posterior direction (Raji lymphoma cells; all the treatment groups (1, 2.5, 5 mg/kg i.p.)): Dissemination of lymphoma cells was decreased; dissemination of lymphoma cells in the brain (Raji lymphoma cells; contralateral brain hemisphere, CD20 IHC): significantly decreased dissemination of lymphoma cells in the brain; also recorded: decreases the dissemination of Raji lymphoma cells inside the brain; IC50 (T47D): 55.1 nM; IC50 (U87): 2800 nM; IC50 (OCI-LY10): 162 nM; weight loss, OCI-LY10 model ([1]; 5 mg/kg dose level): Some weight loss; weight loss, MB-468 model ([2]; 5 mg/kg dose level): Some weight loss; weight loss, U87 model (U87 cells; 5 mg/kg dose level): Some weight loss; IC50 ([3]; cells counted on the third day): 0.14 µM; IC50 ([4]; cells counted on the third day): 2.8 µM
4 | CCN1C(=O)N[C@H]2[C@@H]3NC(=O)c4cc(Cl)c(Cl)n4[C@@H]3C[C@]21O [DCEAA, dichloroethylagelastatin A] | 444 nM | 104 nM | 101 nM | 256 nM | 429 nM | 60 days | significantly prolonged survival; also recorded: prolongation of survival | significantly decreased tumor growth; also recorded: significantly slower | 61 days | significantly prolonged survival; also recorded: prolongation of survival | significantly decreased tumor growth; also recorded: significantly slower | 30 days | significantly prolonged survival; also recorded: prolongation of survival | significantly decreased tumor growth; also recorded: significantly slower | 0.62 µM | 0.44 µM | 69 days | well tolerated | 75 days | 34 days | tolerability, MB-468 model [2]: well tolerated; tolerability, U87 model (U87 cells): well tolerated
